In patent US20260034123A1 (Cedilla Therapeutics, Inc., priority 2022, published 2026):

Key:
Kuramochi cells RB-KO = assay: IncuCyte Kuramochi cell proliferation assay, RB-KO; assay type: cell-based; conditions: 72 hours, cell count, batch mean
Experimental: (§1) IncuCyte® assay was used to measure the effect of disclosed compounds on cell proliferation. Fluorescent microscopy images of cells were taken immediately after compound treatment and 72 hours later. Image analysis software was used to obtain cell counts as a function of compound concentration. Kuramochi cells labeled with mApple-H2B were seeded on 384-well assay-ready plates. Plates were placed in an IncuCyte® (Sartorius) and scanned at 0 and 72 hours. IncuCyte® software was used to count the number of fluorescent nuclei in each well. The fold change in cell count from 0 to 72 hours in wells treated with increasing compounds concentrations (10 pts, 1/2 log dilution, 20 µM top concentration) was normalized to DMSO control wells. The normalized cell counts were fit with dose response curves and a GI50 was calculated.

CDK2/Cyclin E1 = CDK2/Cyclin E1 (Homo sapiens, UniProt P24941); assay: ADP-Glo Luminescent Kinase Assay (CDK2/E1-37C); assay type: biochemical; conditions: 0.18 nM CDK2/Cyclin E1, 100 μM ATP, Histone H1, 37° C.; read-out: ADPGLO (CDK2/E1-37C): IC50
Experimental: Inhibition of CDK2/Cyclin E1 activity by the presence of small molecules was evaluated using ADP-Glo Luminescent Kinase Assay (Promega). Activated CDK2/Cyclin E1 was incubated with its substrate Histone H1 (SignalChem H10-54N) in the kinase reaction buffer (100 μM ATP, 50 mM HEPES pH 7.5, 10 mM MgCl2, 1 mM EDTA, 2 mM DTT, 0.01% Brij35, 0.5 mg/mL BSA). Luminescence was recorded with an Envision plate reader (PerkinElmer).
Dose titrations of inhibitors in 100% DMSO were combined with 0.36 nM CDK2/Cyclin E1 in reaction buffer. The mixtures were incubated for 60 minutes at 37° C. before the addition of ATP and Histone H1 substrate to initiate the kinase reaction. The final conditions were 0.18 nM CDK2/Cyclin E1, 100 μM ATP, and […] Histone H1. The reactions were incubated at 37° C. for 90 minutes before being stopped with the addition of ADP-Glo reagent. This mixture was incubated at room temperature for 60 minutes before Kinase Detection Solution is added to generate luminescence. The stopped reactions were analyzed on an Envision plate reader. The conversion ratios were normalized to yield % activity, plotted against compound concentration, and fit to a four-parameter equation to determine the IC50 for each compound.

Kuramochi cells RB-WT = assay: IncuCyte Kuramochi cell proliferation assay, RB-WT; assay type: cell-based; conditions: 72 hours, cell count
Experimental: as §1

Row | Compound | IC50 (CDK2/Cyclin E1) | IC50 (Kuramochi cells RB-KO) | IC50 (Kuramochi cells RB-WT)
1 | CC1(C)C[C@@H]1C(=O)N1CC2(CN(C(=O)c3cnn(Cc4ccc(F)cc4)c3)CC2COCc2cccc(C3CCC(F)(F)CC3)c2C(=O)O)C1 (stereo partly drawn) [I′-80, 2-(4,4-difluorocyclohexyl)-6-(((2-((S)-2,2-dimethylcyclopropane-1-carbonyl)-6-(1-(4-fluorobenzyl)-1H-pyrazole-4-carbonyl)-2,6-diazaspiro[3.4]octan-8-yl)methoxy)methyl)benzoic acid] | ≤ 0.5 µM | > 10 µM | 0.5 to 5 µM
2 | O=C(O)c1c(COC[C@@H]2CN(c3cc(F)c(F)c4[nH]ccc34)CC23CN(C(=O)C2(C(F)(F)F)CC2)C3)cccc1C1CCC(F)(F)CC1 [I′-61] | > 10 µM | > 10 µM | > 10 µM
3 | O=C(O)c1c(COC[C@@H]2CN(c3cc(F)c(F)c4nc(C(F)(F)F)sc34)CC23CN(C(=O)C2(C(F)(F)F)CC2)C3)cccc1C1CCC(F)(F)CC1 [I′-50] | > 10 µM | > 10 µM | > 10 µM
4 | CC(C)(C(=O)N1CC2(CN(C(=O)c3cnn(Cc4ccc(F)cc4)c3)C[C@H]2COCc2cccc(C3CCC(F)(F)CC3)c2C#N)C1)C(F)(F)F [I′-35] | ≤ 0.5 µM | > 10 µM | 0.5 to 5 µM
5 | O=C(O)c1c(COCC2CN(c3ncnc4ncsc34)CC23CN(C(=O)C2(C(F)(F)F)CC2)C3)cccc1C1CCC(F)(F)CC1 (stereo not drawn) [I′-64, 2-(4,4-difluorocyclohexyl)-6-(((6-(thiazolo[4,5-d]pyrimidin-7-yl)-2-(1-(trifluoromethyl)cyclopropane-1-carbonyl)-2,6-diazaspiro[3.4]octan-8-yl)methoxy)methyl)benzoic acid] | ≤ 0.5 µM | 0.5 to 5 µM | 0.5 to 5 µM
6 | O=C(c1cnn(Cc2ccc(F)cc2)c1)N1CC(COCc2cccc(C3CCC(F)(F)CC3)c2C(=O)C(F)(F)F)C2(C1)CN(C(=O)C1(C(F)(F)F)CC1)C2 (stereo not drawn) [I′-56] | > 10 µM | > 10 µM | 0.5 to 5 µM
7 | CC(C)(C(=O)N1CC2(CN(C(=O)c3cnn(Cc4ccc(F)cc4)c3)C[C@H]2COCc2cccc(C3CCC(F)(F)CC3)c2C(=O)OCCN2CCOCC2)C1)C(F)(F)F [I′-31] | ≤ 0.5 µM | 5 to 10 µM | 0.5 to 5 µM
8 | N#Cc1c(COCC2CN(C(=O)c3cnn(Cc4ccc(C(F)(F)F)cc4)c3)CC23CN(C(=O)C2(C(F)(F)F)CC2)C3)cccc1C1CCC(C(F)(F)F)CC1 (stereo not drawn) [I′-86] | 0.5 to 5 µM | > 10 µM | > 10 µM
9 | CC1(C)C[C@@H]1C(=O)N1CC2(CN(C(=O)c3cnn(Cc4ccc(F)cc4)c3)CC2COCc2cccc(C3CCC(C(F)(F)F)CC3)c2C(=O)O)C1 (stereo partly drawn) [I′-85, 2-(((2-((S)-2,2-dimethylcyclopropane-1-carbonyl)-6-(1-(4-fluorobenzyl)-1H-pyrazole-4-carbonyl)-2,6-diazaspiro[3.4]octan-8-yl)methoxy)methyl)-6-(4-(trifluoromethyl)cyclohexyl)benzoic acid] | ≤ 0.5 µM | 5 to 10 µM | ≤ 0.5 µM
10 | CC1CCC(c2cccc(COC[C@@H]3CN(c4cc(F)c(F)c5ncsc45)CC34CN(C(=O)C(C)(C)C(F)(F)F)C4)c2C(=O)O)CC1 (stereo partly drawn) [I′-47, (S)-2-(((6-(4,5-difluorobenzo[d]thiazol-7-yl)-2-(3,3,3-trifluoro-2,2-dimethylpropanoyl)-2,6-diazaspiro[3.4]octan-8-yl)methoxy)methyl)-6-(4-methylcyclohexyl)benzoic acid] | ≤ 0.5 µM | > 10 µM | > 10 µM
11 | CC1(C)C[C@@H]1C(=O)N1CC2(CN(C(=O)c3cnn(Cc4ccc(F)cc4)c3)CC2COCc2cccc(C3CCC(F)(F)CC3)c2C#N)C1 (stereo partly drawn) [I′-75, 2-(4,4-difluorocyclohexyl)-6-(((2-((S)-2,2-dimethylcyclopropane-1-carbonyl)-6-(1-(4-fluorobenzyl)-1H-pyrazole-4-carbonyl)-2,6-diazaspiro[3.4]octan-8-yl)methoxy)methyl)benzonitrile] | ≤ 0.5 µM | > 10 µM | > 10 µM
12 | CC(C)(C(=O)N1CC2(CN(C(=O)c3cnn(Cc4ccc(F)cc4)c3)C[C@H]2COCc2cccc(C3CCC(F)(F)CC3)c2-c2nn[nH]n2)C1)C(F)(F)F [I′-24] | ≤ 0.5 µM | > 10 µM | 0.5 to 5 µM
13 | O=C(O)c1c(/C=C/CC2CN(C(=O)c3cnn(Cc4ccc(F)cc4)c3)CC23CN(C(=O)C2(C(F)(F)F)CC2)C3)cccc1C1CCC(F)(F)CC1 (stereo not drawn) [I′-46] | 0.5 to 5 µM | > 10 µM | 5 to 10 µM
14 | NC(=O)c1c(COC[C@@H]2CN(c3cc(C(=O)O)cc4ncsc34)CC23CN(C(=O)C2(C(F)(F)F)CC2)C3)cccc1C1CCC(F)(F)CC1 [I′-59] | > 10 µM | > 10 µM | 0.5 to 5 µM
15 | CC(C)(C(=O)N1CC2(CN(C(=O)c3cnn(Cc4ccc(F)cc4)c3)C[C@H]2COCc2cccc(C3=CCC(F)(F)CC3)c2C(=O)O)C1)C(F)(F)F [I′-37] | ≤ 0.5 µM | > 10 µM | ≤ 0.5 µM
16 | CC(C)(C(=O)N1CC2(CN(C(=O)c3cnn(Cc4ccc(F)cc4)c3)C[C@H]2COCc2cccc(-c3ccccc3)c2)C1)C(F)(F)F [I′-39] | 0.5 to 5 µM | > 10 µM | > 10 µM
17 | O=C(c1cnn(Cc2ccc(F)cc2)c1)N1C[C@@H](COCc2cccc(C3CCC(F)(F)CC3)c2-c2nn[nH]n2)C2(C1)CN(C(=O)C1(C(F)(F)F)CC1)C2 [I′-54, (S)-(8-(((3-(4,4-difluorocyclohexyl)-2-(2H-tetrazol-5-yl)benzyl)oxy)methyl)-2-(1-(trifluoromethyl)cyclopropane-1-carbonyl)-2,6-diazaspiro[3.4]octan-6-yl)(1-(4-fluorobenzyl)-1H-pyrazol-4-yl)methanone] | ≤ 0.5 µM | > 10 µM | 5 to 10 µM

Continued, in another order:

Row | IC50 (CDK2/Cyclin E1) | Compound | IC50 (Kuramochi cells RB-KO) | IC50 (Kuramochi cells RB-WT)
18 | ≤ 0.5 µM | O=C(O)c1ccccc1-c1c(COC[C@@H]2CN(C(=O)c3cnn(Cc4ccc(F)cc4)c3)CC23CN(C(=O)C2(C(F)(F)F)CC2)C3)cccc1C1CCC(C(F)(F)F)CC1 (stereo in doubt) [Compound I-104, 2′-(((6-(1-(4-fluorobenzyl)-1H-pyrazole-4-carbonyl)-2-(1-(trifluoromethyl)cyclopropanecarbonyl)-2,6-diazaspiro[3.4]octan-8-yl)methoxy)methyl)-6′-(4-(trifluoromethyl)cyclohexyl)-[1,1′-biphenyl]-2-carboxylic acid] | 5 to 10 µM | 0.5 to 5 µM
19 | 0.5 to 5 µM | CS(=O)(=O)NC(=O)c1c(COC[C@@H]2CN(C(=O)c3cnn(Cc4ccc(C(F)(F)F)cc4)c3)CC23CN(C(=O)C2(C(F)(F)F)CC2)C3)cccc1C1CCC(C(F)(F)F)CC1 (stereo partly drawn) [Compound I-68] | > 10 µM | > 10 µM
20 | ≤ 0.5 µM | CC1(C)C[C@@H]1C(=O)N1CC2(CN(C(=O)c3cnn(Cc4ccc(F)cc4C(F)(F)F)c3)C[C@H]2COCc2cccc(C3CCC(F)(F)CC3)c2C(=O)O)C1 [Compound I-118, 2-(4,4-difluorocyclohexyl)-6-(((2-((S)-2,2-dimethylcyclopropane-1-carbonyl)-6-(1-(4-fluoro-2-(trifluoromethyl)benzyl)-1H-pyrazole-4-carbonyl)-2,6-diazaspiro[3.4]octan-8-yl)methoxy)methyl)benzoic acid] | > 10 µM | 5 to 10 µM
21 | ≤ 0.5 µM | CC1(C)C[C@@H]1C(=O)N1CC2(CN(C(=O)c3cnn(Cc4ccc(F)cc4)c3)C[C@H]2COCc2c(F)ccc(C3CCC(F)(F)CC3)c2C(=O)O)C1 [Compound I-119, 6-(4,4-difluorocyclohexyl)-2-(((2-((S)-2,2-dimethylcyclopropane-1-carbonyl)-6-(1-(4-fluorobenzyl)-1H-pyrazole-4-carbonyl)-2,6-diazaspiro[3.4]octan-8-yl)methoxy)methyl)-3-fluorobenzoic acid] | > 10 µM | 0.5 to 5 µM
22 | > 10 µM | O=C(O)c1c(COC[C@@H]2CN(C(=O)c3cnn(Cc4ccc(F)cc4)c3)CC23CN(C(=O)C2COC2)C3)cccc1C1CCC(C(F)(F)F)CC1 (stereo partly drawn) [Compound I-99] | > 10 µM | > 10 µM
23 | 0.5 to 5 µM | C[C@H](c1ccc(F)cc1)n1cc(C(=O)N2CC(COCc3cccc(C4CCC(C(F)(F)F)CC4)c3C(=O)O)C3(C2)CN(C(=O)C2(C(F)(F)F)CC2)C3)cn1 (stereo partly drawn) [Compound I-78] | > 10 µM | > 10 µM
24 | ≤ 0.5 µM | O=C(O)COc1c(COC[C@@H]2CN(C(=O)c3cnn(Cc4ccc(F)cc4)c3)CC23CN(C(=O)C2(C(F)(F)F)CC2)C3)cccc1C1CCC(C(F)(F)F)CC1 (stereo partly drawn) [Compound I-109, (S)-2-(2-(((6-(1-(4-fluorobenzyl)-1H-pyrazole-4-carbonyl)-2-(1-(trifluoromethyl)cyclopropane-1-carbonyl)-2,6-diazaspiro[3.4]octan-8-yl)methoxy)methyl)-6-(4-(trifluoromethyl)cyclohexyl)phenoxy)acetic acid] | > 10 µM | > 10 µM
